# From patent publication US20020061569A1, “Identification of essential genes in prokaryotes” (priority 2000, published 2002)
# B1: S1M10000001A05: clone containing the nucleic acid which inhibits Staphylococcus aureus proliferation (nucleic acid, listed as Staphylococcus aureus)
# DNA: GATCATATAGAATGACATCCGCTTCACGTATTAAACGCTCAGCCTTTTTCGTCAAATAATTCGGATTACCTGGACCCGCACCTATCAAGTAAACCTTGCCATATTCCTCTACAGACATATATATACGTTCCCGTCTGTAACTTCTACCTCATAAACATCTACACAACCTTCATCAGGTTCTTGAACAATACCTGTATTTAAATCAATTTTTT
# Experiments:
# [1] = tested on: E. coli transformed with IPTG-inducible antisense clones; test: Cell-based assay using antisense to genes encoding ribosomal proteins (Example 9)
# Source text: First, pLex5BA (Krause et al., J. Mol. Biol. 274: 365 (1997), the disclosure of which is incorporated herein by reference in its entirety) vectors containing antisense constructs to either rplW or to elaD were introduced into separate E. coli cell populations. Vector introduction is a technique well known to those of ordinary skill in the art. The vectors of this example contain IPTG inducible promoters that drive the transcription of the antisense RNA in the presence of the inducer. However, those skilled in the art will appreciate that other inducible promoters may also be used. Suitable vectors are also well known in the art. Antisense clones to genes encoding different ribosomal proteins or to genes encoding proteins that are not involved in protein synthesis were utilized to test the effect of antisense transcription on cell sensitivity to the antibiotics known to bind to ribosomal proteins and inhibit protein synthesis. Antisense nucleic acids comprising a nucleotide sequence complementarty to the elaD, atpB&atpE, visC and yohH genes are referred to as AS-elaD, AS-atpB/E, AS-visC, AS-yohH respectively. These genes are not known to be involved in protein synthesis. […]
# The cell populations containing vectors producing AS-elaD or AS-rplW were exposed to a range of IPTG concentrations in liquid medium to obtain the growth inhibitory dose curve for each clone (FIG. 1). First, seed cultures were grown to a particular turbidity measured by the optical density (OD) of the growth solution. […] The cells were grown for up to 15 hours and the extent of growth was determined by measuring the optical density of the cultures at 600 nm. […]
# An example of a tetracycline dose response curve is shown in FIGS. 2A and 2B for the rplW and elaD genes, respectively. Cells were grown to log phase and then diluted into medium alone or medium containing IPTG at concentrations which give 20% and 50% growth inhibition as determined by IPTG dose response curves. […] The 96 well plates were incubated at 37° C. and the OD600 was read by a plate reader every 5 minutes for up to 15 hours. […]
# [2] = tested on: Staphylococcus aureus RN4220; test: Inhibition of proliferation after xylose induction of antisense expression (Example 1); type: cell-based; conditions: 2% xylose
# Source text: In the case of Staphylococcus aureus, a novel inducible promoter system, XylT5, comprising a modified T5 promoter fused to the xylO operater from the xyla promoter of Staphylococcus aureus was used. The promoter is described in U.S. Provisional Patent Application Ser. No. 60/259,434, the disclosure of which is incorporated herein by reference in its entirety. Transcription from this hybrid promoter is inducible by xylose.
# In the case of Staphylococcus aureus, a shotgun library of Staphylococcus aureus genomic fragments was cloned into the vector pXyIT5-P15a, which harbors the Xy1T5 inducible promoter. […]
# The purified library was then transformed into electrocompetent Staphylococcus aureus RN4220. […] Gridded plates were incubated 16 hours at 37° C., and then manually scored for arrayed colonies that were growth-compromised in the presence of xylose.
# Arrayed colonies that were growth-sensitive on medium containing 2% xylose, yet were able to grow on similar medium lacking xylose, were subjected to further growth sensitivity analysis as follows: Colonies from the plate lacking xylose were manually picked and inoculated into individual wells of a 96 well culture dish containing LBG+CM15, and were incubated for 16 hours at 37° C. […] Clones that grew similarly at all dilutions on both media were scored as a negative and were no longer considered.
molecule,measurement,setting,value
CC[C@H]1OC(=O)[C@H](C)[C@@H](O[C@H]2C[C@@](C)(OC)[C@@H](O)[C@H](C)O2)[C@H](C)[C@@H](O[C@@H]2O[C@H](C)C[C@H](N(C)C)[C@H]2O)[C@](C)(O)C[C@@H](C)C(=O)[C@H](C)[C@@H](O)[C@]1(C)O [Erythromycin],sensitivity of cells transcribing antisense to genes not involved in protein synthesis,"[1]; AS-atpB/E, AS-visC, AS-elaD, AS-yohH",do not
same,sensitivity of cells transcribing antisense to protein synthesis genes,"[1]; AS-rplL, AS-rplW, clones to L7/L12, L10, L22, L18, rRNA, Elongation Factor G, with vs without IPTG",increased sensitivity
CCn1cc(C(=O)O)c(=O)c2ccc(C)nc21 [Nalidixic acid],sensitivity of the clone transcribing antisense to rplL and rplJ (AS-rplL/J),[1]; antibiotics which do not inhibit protein synthesis,does not show increased sensitivity
B1,growth sensitivity upon induction of antisense transcription,[2],inhibits Staphylococcus aureus proliferation
